These results are taken from patent US12465658B2, “Eye drop composition” (Aratana Therapeutics, Inc., priority 2012, dated 2025).

Data set [1] in a line: Solubility of A-5021 by slurry experiments (24 h equilibration, filtration, HPLC of filtrate). The note with it: for solubility at 24 h: thermodynamic from solid. Format: physicochemical. On the procedure:
In order to determine the solubility of A-5021 (i.e. 2-amino-9-[[(1S,2R)-1,2-bis(hydroxymethyl)cyclopropyl]methyl]-1,9-dihydro-6H-Purin-6-one), a first series of 33 slurry experiments was performed. Within these experiments a set of 33 different systems (varying in i.e. buffers, co-solvents, solubilizing agents) were considered. The following six buffers were used: HCl buffer (pH 2), phosphate buffer (pH 6.8 and 7.4), tris(hydroxymethyl)aminoethane buffer (pH 9), sodium carbonate/bicarbonate (pH 10.8), and potassium dihydrogen phosphate (pH 12). As co-solvents dimethyl sulfoxide (DMSO), dimethyl acetamide (DMA), N-methyl pyrrolidone (NMP), ethanol (EtOH), and propylene glycol were used with varying concentrations. The solubilizing agents used were propylene glycol, glycerin, solutol HS 15, polysorbate 80, beta-cyclodextrin, hydroxypropyl beta-cyclodextrin (Kleptose® HPB), cremophor EL, cremophor RH 60, polyethylene glycol (PEG) 300, PEG 400, and sulfobutylether beta-cyclodextrin (e.g. Captisol®). The solubility was determined by filtration of the slurries after 24 h equilibration time. The A-5021 concentration in the filtrates was analyzed by High-Performance Liquid Chromatography (HPLC), from which the corresponding solubility was calculated.
Two different buffer systems, co-solvents, and solubilizing agents were considered with focus on systems that gave the best results as reported above. The solubility was again determined by filtration of the slurries after 24 h equilibration time. The A-5021 concentration in the filtrates was analyzed by HPLC, from which the corresponding solubility was calculated. Overall, no greater solubility values than the already reported values were found. […] A close to neutral pH buffered system (80% v/v propylene glycol and 20% v/v phosphate buffer at pH 7.4), which is of interest to develop ophthalmic solutions (allowing topical application of A-5021 to herpes virus-infected eyes) allows to solubilize A-5021 at 8.18 mg/mL. When 2-hydroxypropyl beta-cyclodextrin (HPBC) is used as a solubilizing agent instead of propylene glycol, the solubility of A-5021 decreases compared to the propylene glycol buffered systems.

Data set [2] is described as follows: Vehicle candidates tested to solubilize A-5021 at 5 mg/mL at neutral pH. Type of data set: physicochemical. Particulars: aqueous with cosolvent or surfactant or cyclodextrin, pH 6.98-7.1 1, read-out: concentration of A-5021 solubilized. On the procedure:
Based on the above indicated results and in order to be able to formulate A-5021 at pharmacologically active concentrations (preferably about […]), it was considered to investigate of additional solubilizing agents and/or keeping a high amount of propylene glycol at neutral pH. In total 28 vehicle candidates were tested to solubilize A-5021 at 5 mg/mL at neutral pH: propylene glycol at concentration ranging from 20% to 80% w/v, glycofurol at concentration ranging from 5% to 50% w/v, glycerol at concentration ranging from 15% to 50% w/v, 15% w/v glycerol+15 w/v glycofurol, 25% w/v propylene glycol+25% w/v glycofurol, propylene glycol (range: 15%-60% w/v)+glycerol (range: 5%-15% w/v), 25% w/v Kleptose® HPB+25% propylene glycol, cremophor RH 40, cremophor EL, solutol HS 15, 40-50% Kleptose® HPB, miglyol 812N, liquid paraffin, polyvinylpyrrolidone K12.
Only four vehicles allowed solubilizing A-5021 at the concentration of 5 mg/mL (0.5% w/v) at close to neutral pH (the pH ranged from 6.98-7.1 1). These vehicles are (% w/v in water): • (i) 80% w/v propylene glycol; • (ii) 50% w/v Kleptose® HPB; • (iii) 60% w/v propylene glycol+15% w/v glycerol; • (iv) 60% w/v propylene glycol+10% w/v glycerol.

The test system of a further data set is herpes virus. Particulars: Neyts et al. 2001; Iwayama et al. 1998; cited from earlier work.
Data set [3] deals with herpes simplex virus type 1 (HSV-1). Particulars: in vivo, reported; cited from earlier work.
For data set [4], the system named is herpes simplex virus type 2 (HSV-2). The note with it: in vivo, reported; cited from earlier work.
The next data set deals with varicella-zoster (VZV). Particulars: in vivo, reported; cited from earlier work.
For data set [5] the following is noted: background; more than 1 mg/mL typically requires pH below 4 or above 10; cited from earlier work.

Where two headings read alike, the source gives them in different places.

Regarding `Nc1nc2c(ncn2C[C@]2(CO)C[C@H]2CO)c(=O)[nH]1` [Formulation A-5021, 2-amino-9-[[(1S,2R)-1,2-bis(hydroxymethyl)cyclopropyl]methyl]-1,9-dihydro-6H-Purin-6-one], the solubility at 24 h was 8640 µg/mL in data set [1] (80% (v/v) propylene glycol / 20% (v/v) buffer, pH 1, aqueous with cosolvent or surfactant or cyclodextrin, 80% (v/v) propylene glycol in 20% (v/v) buffer (pH 1 1.3), highest solubility); 8180 µg/mL in data set [1] (80% v/v propylene glycol / 20% v/v phosphate buffer, pH 7.4, aqueous with cosolvent or surfactant or cyclodextrin, 80% v/v propylene glycol and 20% v/v phosphate buffer at pH 7.4); 6760 µg/mL in data set [1] (pH 2.2, aqueous with cosolvent or surfactant or cyclodextrin, 60% v/v HCl buffer and 40% w/v HPBC, pH 2.2); 8500 µg/mL in data set [1] (pH 2.8, aqueous with cosolvent or surfactant or cyclodextrin, acidic pH 2.8 instead of pH 11.3, room temperature); 3280 to 4050 µg/mL in data set [1] (pH 7, aqueous with cosolvent or surfactant or cyclodextrin, 5.7-33.34% v/v propylene glycol, 33.33-40% w/v/v HPBC, 33.34-54.3% v/v buffer, pH 7.0-7.4); 4910 µg/mL in data set [1] (pH 7, aqueous with cosolvent or surfactant or cyclodextrin, 60% v/v HCl buffer and 40% w/v HPBC, pH 7). Further, the “effect on solubility of adding an organic co-solvent” value in data set [1] (pH 12 buffered solutions) is given as “does not improve the solubility”. In addition, the solubility in data set [2] (vehicle (i) 80% w/v propylene glycol in water) is 5000 µg/mL; in data set [2] (vehicle (ii) 50% w/v Kleptose HPB in water) it was 5000 µg/mL; in data set [2] (vehicle (iii) 60% w/v propylene glycol+15% w/v glycerol in water) it was 5000 µg/mL; in data set [2] (vehicle (iv) 60% w/v propylene glycol+10% w/v glycerol in water) it was 5000 µg/mL; in data set [5], “poor solubility”. The “inhibition of herpes virus replication” value in the data set with herpes virus is given as “potent inhibitor”. The antiviral activity entry in data set [3] was “potent and selective antiviral agent”; in data set [4], “potent and selective antiviral agent”; in the data set with varicella-zoster (VZV), “potent and selective antiviral agent”.
